Reference: US11517591B2, “Immunogenic peptides specific to BCMA and TACI antigens” (Dana-Farber Cancer Institute, Inc., priority 2017, dated 2022)

What was measured:
[1] = biological target: T1, HLA-A2 molecule (Homo sapiens, UniProt P04439, D140Y/D185E/D98H/E176V/E277Q/G131W/G231S/I119V/I121R/I166T/I218V/L300P/L318F/N151K/N90K/P208A/P217A/Q86G/Q94H/R138H/R169H/T345S); experiment: Peptide/HLA-A2 complex stability on peptide-loaded T2 cells post-brefeldin A; format: binding
T1 construct: endogenous in cells; host or cells: T2 cell line (human B and T cell hybrid), provided by Dr. J. Molldrem
Experimental: The native and heteroclitic BCMA and TACI peptides were examined for HLA-A2 binding stability using the T2 cell line. T2 cells were pulsed with the respective peptide. After overnight incubation, the cells were washed to remove unbound peptide; they were evaluated for binding affinity as shown above and stability as following. The cells were incubated with 10 μg/ml Brefeldin A (Sigma) at 37° C. and 5% CO2 for 1 hour to block cell surface expression of newly synthesized HLA-A2 molecules. Peptide/HLA-A2 binding stability was evaluated at 0, 2, 4, 6 and 18 hours post-Brefeldin A treatment. Following the incubation period, the cells were harvested, washed, stained with mouse anti-human HLA-A2-FITC mAb and analyzed by flow cytometry. […] Therefore, the Heteroclitic #4 BCMA72-80 (YLMFLLRKI (SEQ ID NO: 13)) and Heteroclitic #3. TACI154-162 (YLSADQVAL (SEQ ID NO: 16) peptides were selected for further evaluation of their immunogenic potential to generate MM-specific cytotoxic T cells (CTLs).
T2 cells were pulsed overnight with various doses of peptide plus β2-microglobulin (3 μg/ml) (Sigma, St Louis, Mo.). Following overnight incubation, the cells were stained with HLA-A2-PE mAb and analyzed using a FACSCanto™ flow cytometer (BD). Peptide/HLA-A2 complex stability was measured on peptide loaded T2 cells at 0, 2, 4, 6 and 14 hours post-brefeldin A treatment by staining with HLA-A2-PE mAb and flow cytometric analysis.
T2 cells were pulsed overnight with various concentrations of peptide plus β2-microglobulin (3 μg/ml) (Sigma, St Louis, Mo.). Following overnight incubation, the cells were stained with HLA-A2-PE mAb and analyzed using a FACSCanto™ flow cytometer (BD). The stability of peptide/HLA-A2 complex binding was measured on peptide loaded T2 cells at 0, 2, 4, 6 and 14 hours post-brefeldin A treatment followed by staining with HLA-A2-PE mAb and flow cytometric analysis.

[2] = tested on: peripheral blood mononuclear cells from HLA-A2+ normal donors; experiment: Generation and phenotypic characterization of BCMA-CTL stimulated with free or nanoparticle-encapsulated BCMA peptide; format: cell-based, human
Experimental: BCMA peptide-specific CTL (BCMA-CTL) were generated ex vivo by repeated stimulation of peripheral blood mononuclear cells isolated from HLA-A2^+ normal donors' with (1) HLA-A2 specific BCMA immunogenic peptide (50 ug/ml), (2) a blank nanoparticle (PLGA or liposome) without peptide, or (3) the BCMA peptide (50 ug/ml) encapsulated nanoparticle (PLGA/peptide or liposome/peptide). PBMC were cultured in DMEM medium supplemented with 10% human AB serum (BioWhittaker) and pulsed weekly with the appropriate BCMA peptide for a total of 4 or 5 cycles. IL-2 (50 U/ml) was added to the T cell cultures two days after the second stimulation.
BCMA peptide-specific CD8^+ CTL were evaluated for Naïve: Memory cell development and expression of CD28 co-stimulatory molecule by flow cytometry. In addition, BCMA peptide-specific CD8^+ CTL were assessed within the cultures by staining with BCMA peptide-specific Tetramer-PE. Following tetramer staining at 37° C. for 30 min, cells were washed and stained with CD8-FITC and CD28-APC mAbs. After staining, cells were washed, fixed in 2% paraformaldehyde, acquired using a LSRII Fortessa™ flow cytometer, and analyzed using FACS DIVA™ v8.0 (BD) or FlowJo v10.0.7 (Tree star, Ashland, Oreg.) software. BCMA-CTL were analyzed for the presence\frequency of specific memory (central memory, effector memory)/non-memory populations within the total gated CD3^+CD8^+ T cell population.

[3] = after the 5-cycle of peptide stimulation

YLMFLLRKI [heteroclitic BCMA72-80, heteroclitic BCMA peptide]
HLA-A2 binding stability, heteroclitic vs native peptide ([1]; 50 ug/ml, 0, 2, 4, 6 and 18 hours post-Brefeldin A, Example 4, FIGS. 6 and 7): significant improvement in their HLA-A2 affinity at all the time points evaluated
HLA-A2 affinity and stability at each time point, compared with HIV-Gag77-85 positive control ([1]; Example 12): highest level of HLA-A2 affinity and stability
HLA-A2 stability of heteroclitic vs native BCMA peptide ([1]; Example 12): further enhanced
total CD45RO+ memory CTL ([2]; 3′ stimulation): 15.3%
total CD45RO+ memory CTL ([2]; 4′ stimulation): 19.5%
total CD45RO+ memory CTL ([2]; 5′ stimulation): 79.0%
central memory (CM) CD8+ T cell subset ([2]; after 1 cycle of stimulation): 2.9%
effector memory (EM) CD8+ T cell subset ([2]; after 1 cycle of stimulation): 5.7%
central memory (CM) CD8+ T cell subset ([2]; after 3 cycles of stimulation): 12.4%
effector memory (EM) CD8+ T cell subset ([2]; after 3 cycles of stimulation): 11.0%
central memory (CM) CD8+ T cell subset [2, 3]: 3.5%
effector memory (EM) CD8+ T cell subset [2, 3]: 95.4%
